From the CheMixHub viscosity set
Several values for one entry are separate records, joined by “and”; a condition that tells them apart may be missing. Equal entries are not always repeated.

Tests used:
[1] = xn = mol fraction of the nth substance listed; conditions: 296 K, 101.3 kPa

CCOCCn1cc[n+](C)c1.C[C@@H](O)[C@H](N)C(=O)[O-]
100 kPa
Conditions	viscosity [mPa·s]
298.15 K	1133
303.15 K	730.3
308.15 K	438.8
313.15 K	312.5
318.15 K	206.8
323.15 K	153.8

C1CCOC1
Conditions	viscosity
293.15 K, 101.33 kPa	0.48 mPa·s
298 K, 101 kPa	0.4608 mPa·s
298 K, 101.33 kPa	0.461 mPa·s
298.15 K, 101.33 kPa	0.53 mPa·s and 0.481 mPa·s and 0.472 mPa·s
303 K, 101 kPa	0.42 mPa·s and 0.42 mPa·s
303 K, 101.3 kPa	0.422 mPa·s
303.15 K, 101.32 kPa	0.449 mPa·s
303.15 K, 101.33 kPa	0.4496 mPa·s and 0.45 mPa·s and 0.45 mPa·s
308 K, 101.33 kPa	0.42 mPa·s
313 K, 101 kPa	0.39 mPa·s and 0.39 mPa·s
313 K, 101.3 kPa	0.402 mPa·s
313.15 K, 100 kPa	0.39 mPa·s
313.15 K, 101.33 kPa	0.4066 mPa·s
323.15 K, 101.33 kPa	0.3696 mPa·s

Brc1ccc2[n-]cnc2c1.CCCCCCCCCCCCCC[P+](CCCCCC)(CCCCCC)CCCCCC
100 kPa
Conditions	viscosity [mPa·s]
293.15 K	1910
298.15 K	1270
303.15 K	872
308.15 K	613
313.15 K	441
318.15 K	325
323.15 K	246

CCCCn1cc[n+](C)c1.O=S(=O)([O-])C(F)(F)F
viscosity
Conditions	293.15 K	298.15 K	303.15 K	308.15 K	313.15 K	318.15 K	323.15 K
100 kPa	90.81 mPa·s and 102 mPa·s	76.01 mPa·s and 87.96 mPa·s and 80.1 mPa·s	63.6 mPa·s and 64.02 mPa·s	56.43 mPa·s and 52.18 mPa·s	42.11 mPa·s and 42.76 mPa·s	38.31 mPa·s and 35.66 mPa·s	30.02 mPa·s and 30.01 mPa·s
101 kPa	–	59.8 mPa·s	–	–	–	–	29.55 mPa·s

O=C(O)CBr
Conditions	viscosity [mPa·s]
323.15 K, 101 kPa	3.65

CC(C)CC(=O)O
101.33 kPa
Conditions	viscosity [mPa·s]
293.15 K	2.411
313.15 K	1.672

C[N+](C)(C)CCO.O=S(=O)([N-]S(=O)(=O)C(F)(F)F)C(F)(F)F
101 kPa
Conditions	viscosity [mPa·s]
298.15 K	144.8
313.15 K	56.44
318.15 K	46.77
323.15 K	39.28

CCCC(=O)[O-].OCC[NH2+]CCO
101.3 kPa
Conditions	viscosity [mPa·s]
293.15 K	1832
298.15 K	1226
303.15 K	839.8
308.15 K	588.7
313.15 K	421.1
318.15 K	307.1
323.15 K	227.9

CC(C)=O
Conditions	viscosity
293.15 K, 100 kPa	0.3276 mPa·s and 0.3276 mPa·s
293.15 K, 101.32 kPa	0.318 mPa·s
293.15 K, 101.33 kPa	0.337 mPa·s and 0.321 mPa·s
293.16 K, 101 kPa	0.326 mPa·s
293.2 K, 101 kPa	0.323 mPa·s
294.15 K, 101 kPa	0.362 mPa·s
296 K, 101.3 kPa	0.311 mPa·s
298.15 K, 100 kPa	0.3186 mPa·s and 0.3186 mPa·s
298.15 K, 101.3 kPa	0.316 mPa·s
298.15 K, 101.33 kPa	0.3013 mPa·s and 0.3049 mPa·s and 0.307 mPa·s
298.16 K, 101 kPa	0.316 mPa·s
302.4 K, 101 kPa	0.5915 mPa·s
302.95 K, 101 kPa	0.295 mPa·s
303.05 K, 101 kPa	0.335 mPa·s
303.15 K, 100 kPa	0.3091 mPa·s and 0.3091 mPa·s and 0.303 mPa·s
303.15 K, 101.33 kPa	0.295 mPa·s and 0.298 mPa·s and 0.339 mPa·s
303.16 K, 101 kPa	0.295 mPa·s
303.95 K, 101 kPa	0.3366 mPa·s
307.35 K, 101.33 kPa	0.29 mPa·s
308.15 K, 100 kPa	0.2992 mPa·s and 0.2992 mPa·s
311.35 K, 101 kPa	0.3166 mPa·s
313.15 K, 100 kPa	0.289 mPa·s and 0.289 mPa·s and 0.276 mPa·s
313.15 K, 101.33 kPa	0.3089 mPa·s
313.25 K, 101 kPa	0.27 mPa·s
318.15 K, 100 kPa	0.2784 mPa·s and 0.2784 mPa·s
318.15 K, 101 kPa	0.279 mPa·s and 0.2649 mPa·s
318.15 K, 101.32 kPa	0.2496 mPa·s
322.95 K, 101 kPa	0.248 mPa·s
323.15 K, 100 kPa	0.2673 mPa·s and 0.2673 mPa·s and 0.255 mPa·s
323.15 K, 101.33 kPa	0.2871 mPa·s

CC(C)C[P+](C)(CC(C)C)CC(C)C.Cc1ccc(S(=O)(=O)[O-])cc1
Conditions	viscosity [mPa·s]
293.15 K, 101 kPa	1320

COc1ccccc1
Conditions	viscosity
293.15 K, 101.33 kPa	1.05 mPa·s and 1.143 mPa·s
298.15 K, 101 kPa	0.9912 mPa·s and 1 mPa·s and 0.9785 mPa·s
298.15 K, 101.3 kPa	0.99 mPa·s and 0.991 mPa·s
303 K, 100 kPa	0.9804 mPa·s
303 K, 101 kPa	0.9804 mPa·s
303 K, 101.3 kPa	0.981 mPa·s
303.15 K, 100 kPa	0.923 mPa·s
303.15 K, 101.3 kPa	0.916 mPa·s and 0.915 mPa·s and 0.923 mPa·s
308.15 K, 101 kPa	0.856 mPa·s and 0.856 mPa·s and 0.8422 mPa·s
313 K, 100 kPa	0.7623 mPa·s
313 K, 101 kPa	0.7623 mPa·s
313.15 K, 100 kPa	0.764 mPa·s
318.15 K, 101 kPa	0.745 mPa·s and 0.745 mPa·s
318.15 K, 101.33 kPa	0.739 mPa·s
323 K, 100 kPa	0.6146 mPa·s
323 K, 101 kPa	0.6146 mPa·s
323.15 K, 101 kPa	0.692 mPa·s and 0.692 mPa·s and 0.72 mPa·s
323.15 K, 101.33 kPa	0.691 mPa·s and 0.691 mPa·s and 0.69 mPa·s

CC1COC(=O)O1 (stereo unspecified)
viscosity
Conditions	293.15 K	298.15 K	303.15 K	308.15 K	313.15 K	318.15 K	323.15 K
99.7 kPa	–	–	2.212 mPa·s	–	1.998 mPa·s	–	1.766 mPa·s
100 kPa	–	2.53 mPa·s	–	–	–	–	–
101 kPa	2.938 mPa·s and 2.738 mPa·s and 2.72 mPa·s	2.531 mPa·s and 2.468 mPa·s and 2.51 mPa·s	2.24 mPa·s and 2.3 mPa·s and 2.29 mPa·s	–	–	1.654 mPa·s and 1.724 mPa·s and 1.85 mPa·s	1.538 mPa·s and 1.595 mPa·s
101.3 kPa	2.746 mPa·s and 2.763 mPa·s and 2.762 mPa·s	–	2.246 mPa·s and 2.3 mPa·s and 2.149 mPa·s	2.049 mPa·s and 2.046 mPa·s	1.879 mPa·s and 1.902 mPa·s	1.73 mPa·s and 1.755 mPa·s and 1.703 mPa·s	1.6 mPa·s
101.33 kPa	2.721 mPa·s	–	2.237 mPa·s	–	1.863 mPa·s	–	–

CCOCCn1cc[n+](CCC#N)c1.O=S(=O)([N-]S(=O)(=O)C(F)(F)F)C(F)(F)F
101.33 kPa
Conditions	viscosity [mPa·s]
293.15 K	401.1
303.15 K	235.6
313.15 K	146.2
323.15 K	105

CC(C)=O + CCCCCCC
[1]
Conditions	viscosity [mPa·s]
x1 = 0.0795	0.385
x1 = 0.1252	0.377
x1 = 0.1699	0.37
x1 = 0.2532	0.362
x1 = 0.3008	0.358
x1 = 0.3956	0.351
x1 = 0.4536	0.347
x1 = 0.5061	0.342
x1 = 0.6193	0.333
x1 = 0.6981	0.328
x1 = 0.7504	0.321
x1 = 0.8116	0.316
x1 = 0.8666	0.314
x1 = 0.9144	0.309
x1 = 0.9678	0.311
